From patent US8168647B2, “Vinblastine derivatives, their preparation, use and pharmaceutical compositions comprising the said derivatives” (Shanghai Institute of Materia Medica Chinese Academy of …, priority 2007, dated 2012) come the findings set out here.

Data set [1] deals with sarcoma 180. In words: In vivo antitumor assay on Sarcoma 180 (S180) in mice. To be noted: for inhibition in vivo at 20 mg/kg: read-out: Inhibition rate %, 20 mg/kg, iv, d 1, 4.
Data set [2] concerns human non-small cell lung cancer cell line A-549. In words: In vitro cytotoxicity assay, Sulforhodamine B (SRB), A-549. The class given is cell-based. The following applies: for IC50: Homo sapiens, A549, 72 h, read-out: A549 (IC50, nM).
Data set [3] concerns human cervical carcinoma cell line Hela. In words: In vitro cytotoxicity assay, Sulforhodamine B (SRB), Hela. Type of data set: cell-based. To be noted: Homo sapiens, HeLa, 72 h, read-out: Hela (IC50, nM).
Where [4] appears, read: Mus musculus, Sarcoma-180, iv, read-out: Inhibition rate %, 40 mg/kg, iv, d 1, 4.

Read-outs that look alike come from different tables or passages of the source. A value given as a limit tells only on which side of the number the result lay.

As to `CCC1=C[C@@H]2CN(CCc3c([nH]c4ccccc34)[C@@](C(=O)OC)(c3cc4c(cc3OC)N(C)[C@H]3C(O)(CNC(=O)OCC(C)C)[C@H](OC(C)=O)[C@]5(CC)C=CCN6CC[C@]43[C@@H]65)C2)C1` (stereo partly drawn) [BM53], in data set [1] (10 mg/kg, iv, d 1, 4), the “Average weight (g) At sacrifice” value is listed as 25.4 g and the “Tumor Weight (g) X ± SD” value is 0.24 ± 0.09 g. Besides, the inhibition in vivo at 10 mg/kg in data set [1] (Mus musculus, Sarcoma-180, iv, read-out: Inhibition rate %, 10 mg/kg, iv, d 1, 4) was 85%. For the same compound, in data set [2], the “cell-based efficacy, inhibition of tumor cell proliferation (in words)” value was “excellent cell-based efficacy” and the IC50 was 13.7 nM. Further, in data set [3], the 50% inhibitory concentration (IC50) worked out at 7.1 nM.
On to `CC[C@]12C=CCN3CC[C@@]4(c5cc([C@@]6(C(=O)OC)C[C@@H]7C[C@@H](C(C)(F)F)CN(CCc8c6[nH]c6ccccc86)C7)c(OC)cc5N(C)[C@H]4C(O)(CNC(=O)OC)[C@@H]1OC(C)=O)[C@@H]32` (stereo partly drawn) [BM79], for which the “Average weight (g) At sacrifice” value in data set [1] (20 mg/kg, iv, d 1, 4) is given as 33.0 g; in data set [1] (40 mg/kg, iv, d 1, 4), 29.5 g. Besides, the “Tumor Weight (g) X ± SD” value in data set [1] (20 mg/kg, iv, d 1, 4) was 1.47 ± 0.15 g; in data set [1] (40 mg/kg, iv, d 1, 4), 0.84 ± 0.49 g. Moreover, the inhibition in vivo at 20 mg/kg in data set [1] (Mus musculus, Sarcoma-180, iv) was 8.1%. Moreover, the inhibition in vivo at 40 mg/kg in data set [1] (setting [4]) was 47.5%. Also, the IC50 in data set [2] and in data set [3] was over 1000 nM each time.
`CCC(=O)NCC1(O)[C@H](OC(C)=O)[C@]2(CC)C=CCN3CC[C@@]4(c5cc([C@@]6(C(=O)OC)C[C@@H]7C[C@@H](C(C)(F)F)CN(CCc8c6[nH]c6ccccc86)C7)c(OC)cc5N(C)[C@@H]14)[C@@H]32` (stereo partly drawn) [BM78]: the “Average weight (g) At sacrifice” value in data set [1] (20 mg/kg, iv, d 1, 4) is 30.1 g; in data set [1] (40 mg/kg, iv d 1) it was 28.8 g; in data set [1] (40 mg/kg, iv, d 1, 4), 29.0 g. Further, the “Tumor Weight (g) X ± SD” value in data set [1] (20 mg/kg, iv, d 1, 4) was 0.76 ± 0.29 g; in data set [1] (40 mg/kg, iv d 1) it was 0.48 ± 0.15 g; in data set [1] (40 mg/kg, iv, d 1, 4) it was 0.36 ± 0.11 g. The inhibition in vivo at 20 mg/kg in data set [1] (Mus musculus, Sarcoma-180, iv) came to 52.5%. Further, the inhibition in vivo at 40 mg/kg was 70% in data set [1] (Mus musculus, Sarcoma-180, iv, read-out: Inhibition rate %, 40 mg/kg, iv d 1) and 77.5% in data set [1] (setting [4]). Moreover, the “antitumor activity in vivo (in words)” value in data set [1] (S180 in mice, iv) was “strong antitumor activity in vivo”. Further, the IC50 in data set [2] and in data set [3] was over 1000 nM in each case.
As to `CCC1=C[C@@H]2CN(CCc3c([nH]c4ccccc34)[C@@](C(=O)OC)(c3cc4c(cc3OC)N(C)[C@H]3C(O)(CNC(=O)OCc5ccc([N+](=O)[O-])cc5)[C@H](OC(C)=O)[C@]5(CC)C=CCN6CC[C@]43[C@@H]65)C2)C1` (stereo partly drawn) [BM73], the IC50 was 780 nM in data set [2] and 432 nM in data set [3].
For `CCC1=C[C@@H]2CN(CCc3c([nH]c4ccccc34)[C@@](C(=O)OC)(c3cc4c(cc3OC)N(C)[C@H]3[C@@]5(CNC(=O)O5)[C@H](OC(C)=O)[C@]5(CC)C=CCN6CC[C@]43[C@@H]65)C2)C1` [BM74], in that order: 710 nM and 342 nM.
For `CCC1=C[C@@H]2CN(CCc3c([nH]c4ccccc34)[C@@](C(=O)OC)(c3cc4c(cc3OC)N(C)[C@H]3C(O)(CNC(=O)OCc5ccc(Cl)cc5)[C@H](OC(C)=O)[C@]5(CC)C=CCN6CC[C@]43[C@@H]65)C2)C1` (stereo partly drawn) [BM71], in that order: 510 nM and 347 nM.
Take `CCC1=C[C@@H]2CN(CCc3c([nH]c4ccccc34)[C@@](C(=O)OC)(c3cc4c(cc3OC)N(C)[C@H]3C(O)(CNC(=O)OCc5cccc(Cl)c5)[C@H](OC(C)=O)[C@]5(CC)C=CCN6CC[C@]43[C@@H]65)C2)C1` (stereo partly drawn) [BM70]: the IC50 in data set [2] and in data set [3] was over 1000 nM in each case.
For the compound `CCC1=C[C@@H]2CN(CCc3c([nH]c4ccccc34)[C@@](C(=O)OC)(c3cc4c(cc3OC)N(C)[C@H]3C(O)(CNC(=O)OCCOC)[C@H](OC(C)=O)[C@]5(CC)C=CCN6CC[C@]43[C@@H]65)C2)C1` (stereo partly drawn) [BM54], the IC50 turned out to be 632 nM in data set [2] and 425 nM in data set [3].
For `CCC1=C[C@@H]2CN(CCc3c([nH]c4ccccc34)[C@@](C(=O)OC)(c3cc4c(cc3OC)N(C)[C@H]3C(O)(COC(=O)NCCC(C)C)[C@H](OC(C)=O)[C@]5(CC)C=CCN6CC[C@]43[C@@H]65)C2)C1` (stereo partly drawn) [BM24], in that order: over 1000 nM and over 1000 nM.
For `CCC1=C[C@@H]2CN(CCc3c([nH]c4ccccc34)[C@@](C(=O)OC)(c3cc4c(cc3OC)N(C)[C@H]3C(O)(CNC(=O)OC5CCCC5)[C@H](OC(C)=O)[C@]5(CC)C=CCN6CC[C@]43[C@@H]65)C2)C1` (stereo partly drawn) [BM59], in that order: 170 nM and 79.8 nM.
For `CCC1=C[C@@H]2CN(CCc3c([nH]c4ccccc34)[C@@](C(=O)OC)(c3cc4c(cc3OC)N(C)[C@H]3C(O)(CNC(=O)c5ccccc5)[C@H](OC(C)=O)[C@]5(CC)C=CCN6CC[C@]43[C@@H]65)C2)C1` (stereo partly drawn) [BM36], in that order: 87.4 nM and 16.4 nM.
Take `CCC1=C[C@@H]2CN(CCc3c([nH]c4ccccc34)[C@@](C(=O)OC)(c3cc4c(cc3OC)N(C)[C@H]3C(O)(COC(=O)C(C)(C)C)[C@H](OC(C)=O)[C@]5(CC)C=CCN6CC[C@]43C65)C2)C1` (stereo partly drawn) [BM12]: the IC50 in data set [2] was determined as 576 nM; in data set [3] it was 95.9 nM.
For `CCC1=C[C@@H]2CN(CCc3c([nH]c4ccccc34)[C@@](C(=O)OC)(c3cc4c(cc3OC)N(C)[C@H]3C(O)(CNC(=O)c5ccncc5)[C@H](OC(C)=O)[C@]5(CC)C=CCN6CC[C@]43C65)C2)C1` (stereo partly drawn) [BM42] the same measures were 78.3 nM and 22.4 nM.
Turning to `CCC1=C[C@@H]2CN(CCc3c([nH]c4ccccc34)[C@@](C(=O)OC)(c3cc4c(cc3OC)N(C)[C@H]3C(O)(COC(=O)Cc5ccccc5)[C@H](OC(C)=O)[C@]5(CC)C=CCN6CC[C@]43[C@@H]65)C2)C1` (stereo partly drawn) [BM15], the IC50 in data set [2] was over 1000 nM; in data set [3], 228 nM.
For `CCC1=C[C@@H]2CN(CCc3c([nH]c4ccccc34)[C@@](C(=O)OC)(c3cc4c(cc3OC)N(C)[C@H]3C(O)(CNC(=O)C(C)(C)C)[C@H](OC(C)=O)[C@]5(CC)C=CCN6CC[C@]43[C@@H]65)C2)C1` (stereo partly drawn) [BM34], in that order: 338 nM and 73.5 nM.
Turning to `CCCCCOC(=O)NCC1(O)[C@H](OC(C)=O)[C@]2(CC)C=CCN3CC[C@@]4(c5cc([C@@]6(C(=O)OC)C[C@@H]7C=C(CC)CN(CCc8c6[nH]c6ccccc86)C7)c(OC)cc5N(C)[C@@H]14)[C@@H]32` (stereo partly drawn) [BM56], the IC50 in data set [2] was 332 nM; in data set [3], 78.4 nM.
As for `CCC1=C[C@@H]2CN(CCc3c([nH]c4ccccc34)[C@@](C(=O)OC)(c3cc4c(cc3OC)N(C)[C@H]3C(O)(COCc5ccc(OC)cc5)[C@H](OC(C)=O)[C@]5(CC)C=CCN6CC[C@]43C65)C2)C1` (stereo partly drawn) [BM5], the figures for the IC50 in data set [2] and in data set [3] were over 1000 nM and 286 nM, respectively.
For `CCC1=C[C@@H]2CN(CCc3c([nH]c4ccccc34)[C@@](C(=O)OC)(c3cc4c(cc3OC)N(C)[C@H]3C(O)(CNC(=O)C(F)(F)F)[C@H](OC(C)=O)[C@]5(CC)C=CCN6CC[C@]43[C@@H]65)C2)C1` (stereo partly drawn) [BM26], in that order: 56.3 nM and 61.6 nM.
For `CCC1=C[C@@H]2CN(CCc3c([nH]c4ccccc34)[C@@](C(=O)OC)(c3cc4c(cc3OC)N(C)[C@H]3C(O)(CNC(=O)Oc5ccccc5OC)[C@H](OC(C)=O)[C@]5(CC)C=CCN6CC[C@]43[C@@H]65)C2)C1` (stereo partly drawn) [BM64], the IC50 in data set [2] amounted to 951 nM; in data set [3] it was 227 nM.
For `CCC(=O)OCC1(O)[C@H](OC(C)=O)[C@]2(CC)C=CCN3CC[C@@]4(c5cc([C@@]6(C(=O)OC)C[C@@H]7C=C(CC)CN(CCc8c6[nH]c6ccccc86)C7)c(OC)cc5N(C)[C@@H]14)[C@@H]32` (stereo partly drawn) [BM10] the same measures were 710 nM and 637 nM.
As for `CCC1=C[C@@H]2CN(CCc3c([nH]c4ccccc34)[C@@](C(=O)OC)(c3cc4c(cc3OC)N(C)[C@H]3C(O)(CNC(=O)CC(C)(C)C)[C@H](OC(C)=O)[C@]5(CC)C=CCN6CC[C@]43[C@@H]65)C2)C1` (stereo partly drawn) [BM31], the IC50 in data set [2] came out at 395 nM; in data set [3], 245 nM.
For `CCC1=C[C@@H]2CN(CCc3c([nH]c4ccccc34)[C@@](C(=O)OC)(c3cc4c(cc3OC)N(C)[C@H]3C(O)(CNC(=O)Oc5ccccc5)[C@H](OC(C)=O)[C@]5(CC)C=CCN6CC[C@]43[C@@H]65)C2)C1` (stereo partly drawn) [BM61] the same measures were 978 nM and 683 nM.
Turning to `CCCOCC1(O)[C@H](OC(C)=O)[C@]2(CC)C=CCN3CC[C@@]4(c5cc([C@@]6(C(=O)OC)C[C@@H]7C=C(CC)CN(CCc8c6[nH]c6ccccc86)C7)c(OC)cc5N(C)[C@@H]14)[C@@H]32` (stereo partly drawn) [BM3], the IC50 in data set [2] and in data set [3] was over 1000 nM each time.
`CCC1=C[C@@H]2CN(CCc3c([nH]c4ccccc34)[C@@](C(=O)OC)(c3cc4c(cc3OC)N(C)[C@H]3C(O)(CNC(=O)Oc5ccc(OC)cc5)[C@H](OC(C)=O)[C@]5(CC)C=CCN6CC[C@]43[C@@H]65)C2)C1` (stereo partly drawn) [BM65]: the IC50 in data set [2] was found to be 344 nM; in data set [3], 159 nM.
For `CCC1=C[C@@H]2CN(CCc3c([nH]c4ccccc34)[C@@](C(=O)OC)(c3cc4c(cc3OC)N(C)[C@H]3C(O)(CNC(=O)Oc5ccc(F)c(F)c5)[C@H](OC(C)=O)[C@]5(CC)C=CCN6CC[C@]43[C@@H]65)C2)C1` (stereo partly drawn) [BM63] the same measures were over 1000 nM and 264 nM.
Take `CCCCNC(=O)OCC1(O)[C@H](OC(C)=O)[C@]2(CC)C=CCN3CC[C@@]4(c5cc([C@@]6(C(=O)OC)C[C@@H]7C=C(CC)CN(CCc8c6[nH]c6ccccc86)C7)c(OC)cc5N(C)[C@@H]14)[C@@H]32` (stereo partly drawn) [BM23]: the IC50 in data set [2] and in data set [3] was over 1000 nM in each case.
